Like-named read-outs stand apart in the source and are kept apart here.

Experiment [1] addresses T1, PHL (Photorhabdus asymbiotica, UniProt C7BLE4). The experiment in a line: Isothermal titration calorimetry (ITC). It counts as binding. How it is done: ITC experiments were performed using an ITC200 calorimeter (Malvern, England). Experiments were performed at 25°C in buffer A (300 mM NaCl, 20 mM Tris/HCl, pH 7.5). Carbohydrate ligands were dissolved in the same buffer. Protein in the cell (50 μM) was titrated by consecutive addition (2 μl) of the ligand in the syringe (1.5–50 mM) while stirring at 1000 rpm. Control experiments performed with injections of buffer in the protein solution yielded insignificant signals. Integrated heat effects were analyzed by nonlinear regression using a single-site binding model in Origin 7 (Microcal). The experimental data fitted to a theoretical titration curve brought up stoichiometry (n), association constant Ka, and the enthalpy of binding ΔH. The other thermodynamic parameters such as free energy (ΔG) and […] (ΔS) were calculated from the equation ΔG = ΔH-TΔS = -RTlnKa, where T is the absolute temperature and R is the molar gas constant (8.314 J.mol^-1.K^-1). At least two independent titrations were carried out for each tested ligand.

Experiment [2] addresses T1, PHL. Nature of the experiment: Haemagglutination inhibition assay with PHL. It counts as cell-based. Particulars: for Potency towards L-fucose: haemagglutination inhibition, from MIC; for MIC (minimal inhibitory concentration) of haemagglutination by PHL: microscopy. How it is done: A haemagglutination inhibition assay was performed to determine the specificity and semi-quantitative affinity of PHL interaction with the saccharides. A wide range of monosaccharides at concentrations from 50 mM to 0.5 mM were used for determining the lowest inhibiting concentration. A 20 μl mixture composed of 5 μl PHL (2mg/ml), 5 μl saccharide, and 10 μl 10% RBCs was prepared (all components of reaction were in PBS buffer). After 10 minutes, the reaction was observed using a Levenhuk microscope.

The target in experiment [3] is T1, PHL. It counts as binding. The following applies: for relative binding / preference on glycan array: PHL 200 μg/ml; for Median: calculated from hexaplicates.
In experiment [4] the target is T1, PHL. Nature of the experiment: SPR inhibition of PHL binding to immobilized L-fucoside. Particulars: for Potency relative to L-Fuc: SPR inhibition, from IC50; for IC50: SPR, PHL 0.25 μM binding to immobilized L-fucoside, 25°C, read-out: IC50. The method, then:
SPR inhibition experiments were performed using the same conditions described above. The PHL lectin (0.25 μM final concentration) was mixed with various concentrations of inhibitors (1M – 0.01 mM) and injected onto the sensor chip. Pure PHL lectin was used as a control (0% inhibition). The response of the lectin bound to the sugar surface at equilibrium was plotted against the concentration of inhibitor in order to determine IC50.

Where [5] appears, read: ITC at 25°C, stoichiometry fixed to 3, read-out: KD (n = 3).
[6] abbreviates: ITC at 25°C, stoichiometry fixed to 4, read-out: KD (n = 4).
Setting [7] is: glycan array signal of PHL per printed glycan, microarray chip (Semiotic, Moscow; Slide number 10085636), 488 channel.
Where [8] appears, read: glycan array signal of labelled PHL for the printed glycan/polysaccharide, Semiotic slide 10085636.

T1 sequence (C7BLE4 1-369): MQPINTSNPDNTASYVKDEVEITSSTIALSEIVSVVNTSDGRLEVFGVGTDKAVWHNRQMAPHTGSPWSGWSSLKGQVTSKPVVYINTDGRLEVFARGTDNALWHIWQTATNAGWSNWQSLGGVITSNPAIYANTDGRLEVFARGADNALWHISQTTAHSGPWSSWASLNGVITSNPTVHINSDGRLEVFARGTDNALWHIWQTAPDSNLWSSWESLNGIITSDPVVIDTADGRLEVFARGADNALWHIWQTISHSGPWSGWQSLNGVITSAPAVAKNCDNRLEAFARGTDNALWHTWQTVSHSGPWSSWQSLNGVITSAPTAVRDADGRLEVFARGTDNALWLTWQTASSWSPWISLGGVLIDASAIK

Take `C[C@@H]1O[C@@H](O[C@H]2C(O)O[C@H](CO)[C@H](O)[C@@H]2O[C@H]2O[C@H](CO)[C@H](O)[C@H](O)[C@H]2O)[C@@H](O)[C@H](O)[C@@H]1O` (stereo partly shown) [BGB trisaccharide]: the Kd on PHL [1] (setting [5]) is 570 ± 10 µM; at PHL [1] (setting [6]), 510 ± 10 µM; at PHL [1] (ITC, stoichiometry not fixed, read-out: equilibrium dissociation constant), 490 µM. For the same molecule, the binding stoichiometry at PHL [1] (ITC, fitted) is given as ~4.3. Besides, the “Potency towards L-fucose” value at PHL [2] worked out at 10. Moreover, the “relative binding / preference on glycan array” value at PHL [3] is “strongest binding to human-related oligosaccharides”. Also, the entries for the “Potency relative to L-Fuc” value on PHL [4] and at PHL [4] (listed as blood group B trisaccharide) were 5.15 and ~5, respectively. Further, the IC50 at PHL [4] was found to be 70 µM.

Take GalNAcα1-3(Fucα1-2)Galβ1-4GlcNAcβ-sp3: the Median on PHL [3] (setting [7]) is 79.

`CC(=O)N[C@H]1C(O)O[C@H](CO)[C@@H](O)[C@@H]1O[C@@H]1O[C@@H](C)[C@@H](O)[C@@H](O)[C@@H]1O` (stereo partly shown) [Fucα1-3GlcNAc]: the Kd at PHL [1] (setting [5]) came to 3520 ± 210 µM. Also, at PHL [1] (setting [6]), the Kd is 3430 ± 210 µM. Also, at PHL [2], the “Potency towards L-fucose” value amounted to 1.3 and the “MIC (minimal inhibitory concentration) of haemagglutination by PHL” value (from here on “MIC (minimal inhibitory concentration)”) was 2500 µM. At PHL [4], the “Potency relative to L-Fuc” value came to 0.53 and the 50% inhibitory concentration (IC50) worked out at 690 µM.

As for `CC(=O)N[C@H]1[C@H](OCCCN)O[C@H](CO)[C@@H](O[C@@H]2O[C@H](CO)[C@H](OS(=O)(=O)O)[C@H](OS(=O)(=O)O)[C@H]2O)[C@@H]1O` [3,4-O-Su2-Galβ1-4GlcNAcβ-sp3], the Median at PHL [3] (setting [7]) is 87.

With Curdlan, the Median at PHL [3] (setting [8]) is recorded as 75.

As for `OC[C@H]1OC(O)[C@@H](O)[C@@H](O)[C@@H]1O` (stereo partly drawn) [D-Man, D-mannose], the Kd came to 44600 ± 2000 µM at PHL [1] (setting [5]) and 44400 ± 2000 µM at PHL [1] (setting [6]). Also, at PHL [2], the “Potency towards L-fucose” value was <0.01. Moreover, the “Potency relative to L-Fuc” value at PHL [4] is listed as < 0.01.

For 6-O-Su-Galβ1-3GalNAcα-sp3, at PHL [3] (setting [7]), the Median is on record as 81.

Take Galα1-3Galβ1-4GlcNAcβ-sp3: the Median on PHL [3] (setting [8]) is 70.

For the molecule `CO[C@H]1O[C@@H](C)[C@@H](O)[C@@H](O)[C@@H]1O` [Me-β-L-Fuc, methyl-β-L-fucopyranoside], the Kd at PHL [1] (setting [5]) was determined as 3550 ± 90 µM. Besides, at PHL [1] (setting [6]), the Kd amounted to 3480 ± 90 µM. In addition, on PHL [2], the “Potency towards L-fucose” value amounted to 0.5 and the “MIC (minimal inhibitory concentration)” value is 6250 µM. Moreover, on PHL [4], the “Potency relative to L-Fuc” value is 0.47 and the IC50 amounted to 770 µM.

For the molecule Galα1-4GlcNAcβ-sp8, the Median at PHL [3] (setting [8]) is 75.

In the case of 4-O-Su-Galβ1-4GlcNAcβ-sp3, the Median at PHL [3] (setting [8]) is on record as 77.

On to `CC(=O)N[C@H]1[C@@H](OC[C@H](N)C(=O)O)O[C@H](CO)[C@H](O)[C@@H]1O` [GalNAcα1-OSer], for which the Median on PHL [3] (setting [8]) is on record as 71.

As to Galβ1-6Galβ-sp4, at PHL [3] (setting [7]), the Median was 85.

Turning to “4,6-O-Su2-GalNAcβ1-4-(3-O-Ac)GlcNAcβ-sp3”, on PHL [3] (setting [7]), the Median is 81.

Regarding `COC[C@H]1O[C@@H](O[C@@H]2[C@@H](OC)[C@@H](OC)[C@H](Oc3ccc(OCCN)cc3)O[C@H]2C)[C@H](O)[C@@H](OC)[C@@H]1O` [3,6-O-Me2-Glcβ1-4(2,3-O-Me2)Rhaα-O-(p-C6H4)-OCH2CH2NH2], the “relative binding / preference on glycan array” value at PHL [3] is “most preferred complex saccharide”.

Turning to GalNAcβ1-4GlcNAcβ-sp2, at PHL [3] (setting [7]), the Median is recorded as 87.

Consider GlcNAcβ1-4Galβ1-4GlcNAcβ-sp2, for which the Median at PHL [3] (setting [7]) is given as 86.

Take 6-O-Su-Galβ1-3(6-O-Su)GlcNAcβ-sp2: on PHL [3] (setting [7]), the Median is listed as 87.

“Galβ1-4GlcNAcβ1-6(Galβ1-4GlcNAcβ1-3)GalNAcα-sp3”: the Median on PHL [3] (setting [8]) is 71.

For `CC(=O)N[C@@H]1[C@@H](O)[C@H](O)[C@@H](CO)O[C@@H]1O` [D-GlcNAc, N-acetyl-D-glucosamine], the “Potency towards L-fucose” value at PHL [2] is <0.01. Besides, at PHL [4], the “Potency relative to L-Fuc” value was 0.01 and the 50% inhibitory concentration (IC50) worked out at 70500 µM.

Take 4,6-O-Su2-Galβ1-4GlcNAcβ-sp2: at PHL [3] (setting [8]), the Median is given as 77.

As to GalNAcα1-3Galβ1-4(Fucα1-3)GlcNAcβ-sp3, on PHL [3] (setting [8]), the Median is listed as 73.

For the molecule Galβ1-4GlcNAcβ-sp8, the Median on PHL [3] (setting [7]) is given as 83.

Take `CC(=O)N[C@H]1C(O)O[C@H](CO)[C@@H](O[C@@H]2O[C@H](CO)[C@H](O)[C@H](O)[C@H]2O[C@@H]2O[C@@H](C)[C@@H](O)[C@@H](O)[C@@H]2O)[C@@H]1O` (stereo partly shown) [BGH trisaccharide]: the values for the Kd on PHL [1] (setting [5]) and at PHL [1] (setting [6]) were 4440 ± 190 µM and 4350 ± 190 µM, respectively. Moreover, the “Potency towards L-fucose” value on PHL [2] is listed as <0.01. Further, on PHL [4], the “Potency relative to L-Fuc” value was determined as 0.33. In addition, the IC50 at PHL [4] came to 1090 µM.

Turning to `O=C[C@H](O)[C@@H](O)[C@@H](O)[C@H](O)CO` [D-Gal, D-galactose], the Kd stood at 890 ± 20 µM at PHL [1] (KD (n = 3), ITC at 25°C, stoichiometry fixed to 3) and 830 ± 20 µM on PHL [1] (KD (n = 4), ITC at 25°C, stoichiometry fixed to 4). The “Potency towards L-fucose” value at PHL [2] is <0.01. Also, the “Potency relative to L-Fuc” value on PHL [4] is < 0.01.

Turning to GlcNAcβ-sp8, the Median at PHL [3] (setting [7]) was 78.

In the case of `CC(=O)N[C@H]1[C@@H](O[C@H]2[C@@H](O)[C@@H](CO)O[C@@H](O)[C@@H]2O[C@@H]2O[C@@H](C)[C@@H](O)[C@@H](O)[C@@H]2O)O[C@H](CO)[C@H](O)[C@@H]1O` [BGA trisaccharide], at PHL [1] (setting [5]), the Kd amounted to 1450 ± 30 µM. Besides, the Kd at PHL [1] (setting [6]) is 1380 ± 40 µM. Besides, on PHL [2], the “Potency towards L-fucose” value was found to be 1.3 and the “MIC (minimal inhibitory concentration)” value worked out at 2500 µM. At PHL [4], the “Potency relative to L-Fuc” value is 1.21 and the half-inhibitory concentration (IC50) was determined as 300 µM.

As to `CC(=O)N[C@H]1C(O)O[C@H](CO)[C@@H](O[C@@H]2O[C@@H](C)[C@@H](O)[C@@H](O)[C@@H]2O)[C@@H]1O` (stereo partly shown) [Fucα1-4GlcNAc], on PHL [1] (setting [5]), the Kd is 4460 ± 310 µM. In addition, on PHL [1] (setting [6]), the Kd turned out to be 4370 ± 310 µM. Besides, on PHL [2], the “Potency towards L-fucose” value is given as 1.3 and the “MIC (minimal inhibitory concentration)” value was 2500 µM. In addition, on PHL [4], the “Potency relative to L-Fuc” value amounted to 0.49 and the IC50 stood at 730 µM.

As for 6-H2PO3Manα-sp3, the Median on PHL [3] (setting [7]) was 83.

For `NCC(O)C(O)C(O)C(O)CO` (stereo not shown) [HOCH2(HOCH)4CH2NH2], the Median on PHL [3] (setting [8]) is reported as 70.

In the case of 6-O-Su-Galβ1-3GlcNAcβ-sp3, at PHL [3] (setting [8]), the Median was 73.

For `OC[C@H]1OC(O)[C@H](O)[C@@H](O)[C@@H]1O` (stereo partly drawn) [D-Glc], the Kd on PHL [1] (setting [5]) was 3550 ± 150 µM; at PHL [1] (setting [6]), 3480 ± 150 µM. Besides, on PHL [2], the “Potency towards L-fucose” value is <0.01. Further, the “Potency relative to L-Fuc” value on PHL [4] was < 0.01.

On to `CC(=O)N[C@@H]1[C@@H](O)[C@H](O[C@@H]2O[C@H](CO)[C@@H](O)[C@H](O)[C@H]2NC(C)=O)[C@@H](CO)O[C@H]1NC(=O)C[C@H](N)C(=O)O` [GlcNAcβ1-4GlcNAcβ-Asn], for which the Median on PHL [3] (setting [8]) is reported as 77.

The values above are taken from article PMC5584973, “Characterization of novel bangle lectin from Photorhabdus asymbiotica with dual sugar-binding specificity and its effect on host immunity” (PLoS Pathogens, 2017).
